Source: patent US8163709B2, “TAK1-D mediated induction of cell death in human cancer cells by specific sequence short double-stranded RNAS” (Board of Regents of the University of Texas System, priority 2008, dated 2012)

How the values were obtained:
TAK1-A = test: Autophosphorylation of the other (long) Tak1 splicing variants in H460 cells; assay type: cell-based, human; conditions: siRNA 20 nM
Excerpt: In contrast only the long form (TAK1-A) is able to activate the NFκB pathway through phosphorylation of IKKα/β.

H460 cells = test: BrdU pulse labeling and flow cytometry of H460 cells; assay type: cell-based, human
Procedure: FIGS. 10A-D: Reaction of NCI-H460 cells to activation of p38 MAPK and SAPK/JNK. (FIG. 10A) BrdU labeling was used to determine the amount of NCI-H460 cells in the S phase of the cell cycle. Cells were pulse labeled with 100 μM BrdU for 15 minutes (0 and 4 h) or 10 μM for 1 h (24 h). Dot blots show DNA content versus BrdU signal. The number of S phase cells decreases within a few hours after treatment of cells with siRNA si5. (FIG. 10B) Flow cytometry dot blots, showing the cellular DNA content versus the amount of cleaved Caspase 3. Within 24 h after exposure to siRNA si5 cells in G1 as well as in the S phase of the cell cycle show Caspase 3 activation. (FIG. 10C) Activation of Caspase 3 leads to PARP cleavage and to (FIG. 10D) nuclear chromatin condensation visible in Hoechst 33342 stained NCI-H460 cells, typical of apoptosis.
To test this hypothesis, H460 cells were pulse labeled with BrdU for 15 min at various time points after treatment with siRNA si5 and analyzed by flow cytometry immediately afterwards. […] In particular, it can be seen that the fraction of cells in the S phase of the cell cycle drops from 48% in untreated cells to 27% 4 h after incubating the cells with 20 nM siRNA si5.

H460 xenograft tumors = test: Immunohistochemistry for cleaved Caspase-3 in H460 xenograft tumors; assay type: in vivo, mice; conditions: 16 hours after intratumoral injection
Procedure: To gain an insight into the mechanisms of dsRNA si5-induced growth delay in H460 xenograft tumors shown in FIG. 26, the tumors were analyzed by immunohistochemical staining for apoptotic activation of Caspase-3. Two tumors with a volume of about 500 μl were injected with a liposomal preparation of active and control dsRNA as described above. Sixteen hours after injection mice were sacrificed and the tumors were fixed in formaldehyde. After paraffin embedding 5 μm sections were cut from the central region of the tumor. The sections were stained immunohistochemically using a primary antibody against cleaved Caspase-3. The primary antibody was detected using a biotinylated secondary antibody and an peroxidase ABC-Kit (Vector Laboratories). Diaminobenzidine (DAB) was used as a substrate for immunohistochemical detection and the slides were counterstained with Hematoxylin.

p38 MAPK = p38 MAPK cascade activation in HCC2279 cells (Western blot); assay type: cell-based, human
Excerpt: A possible application for the above mentioned findings in cancer therapy requires data on the effects of dsRNA mediated activation of Tak1-D in other tumors and in normal tissues. To test whether dsRNA mediated cell killing also occurs in other tumor cell lines, the NSCLC cell line HCC2279 was chosen. This cell line originated from an adenocarcinoma and was initially described by Wistuba et al. (1999).

si5: 21-mer siRNA against TLK1 mRNA: GGCUUUUGACCUUUAUGAAtt (SEQ ID NO: 2) / ttCCGAAAACUGGAAAUACUU (SEQ ID NO: 3) (sense GGCUUUUGACCUUUAUGAATT; antisense TTCCGAAAACUGGAAAUACUU; chemistry not given here; one strand is listed 3' to 5')
activating autophosphorylation of the other three splicing variants of Tak1 (TAK1-A): does not induce activating autophosphorylation | fraction of cells in the S phase of the cell cycle (H460 cells; H460, 4 h after 20 nM, untreated cells 48%): 27% | DNA synthesis (H460 cells; H460, 24 h after treatment): ceased almost completely | cell cycle arrest (H460 cells; NCI-H460, first 24 h): arrest of NCI-H460 cells in the G1, S, and G2 phase of the cell cycle | apoptotic activation of Caspase-3 (DAB staining) (H460 xenograft tumors): visible in many cells | activation of p38 MAPK (p38 MAPK): activate p38 MAPK
